# Laboratory results reported in patent US20040241166A1, “Use of inhibitors of ikk-beta and method for discovery of said inhibitors” (priority 2001, published 2004).
# Experiments:
# IKK complex = assay: Immunoprecipitation and kinase assay of IKK complex from stimulated HUVEC (GST-IκB-α phosphorylation); format: cell-based, human
# Protocol: Cells were incubated as indicated and cytosol extracts were made. Immunoprecipitation (IP) with antikinase antibodies as indicated was followed by a kinase assay using the substrate GST.IκB-α in the presence of ^32P-ATP. A time-dependent phosphorylation of the substrate is shown in each case after stimulation of HUVEC with blood platelets (PLT; 2×10^8/ml) (FIG. 6A), IL-1β (100 pg/ml) (FIG. 6B) or TNF (1.67 ng/ml) (FIG. 6C). A representative experiment is shown for each case (n=3). FIG. 6D: the kinase assays were scanned and analysed densitometrically.
# Cytosol extracts were subjected to immunoprecipitation (IP) (7) in TNT buffer containing 1 mM dithiothreitol, 0.5 μM 4-(2-aminoethyl)-benzenesulfonyl fluoride (AEBSF) and 0.75 μg/ml each of leupeptin, antipain, aprotinin, pepstatin A and chymostatin (Sigma). […] After washing three times with TNT and kinase buffer each time (20 mM HEPES, pH 8.0; 10 mM MgCl2, 100 μM Na3VO4; 20 mM β-glycerophosphate; 50 mM NaCl; 2 mM dithiothreitol; 0.5 μM AEBSF; 0.75 μg/ml each of leupeptin, antipain, aprotinin, pepstatin A, chymostatin), the precipitated proteins were analysed by a kinase assay. […] Proteins were analysed with PAGE and visualised by means of autoradiography. […]
# IκB-α and IκB-ε = assay: Western blot of IκB-α/IκB-ε proteolysis in stimulated HUVEC; format: cell-based, human
# Protocol: FIG. 5A: nuclear extracts from HUVEC stimulated with blood platelets (PLT; 2×10^8/ml) were examined by EMSA for NF-κB or Sp-1 binding, which is shown in brackets. FIG. 5B: cytosol extracts from cells stimulated with blood platelets were analysed by means of western blots. The proteins IκB-α, IκB-ε, IKK-α and IKK-β are indicated by arrow heads. α-Actin was used as a loading control. FIG. 5C: cytosol extracts from cells stimulated with IL-β (100 pg/ml) were examined by means of western blots. FIG. 5D: cells were incubated with TNF (1.67 ng/ml) and cytosol extracts were examined by means of western blots. The top arrow indicates the phosphorylated forms of IκB-α or IκB-ε. A representative blot is shown for all cases (n=3).
# Cytosol extracts were isolated, and electrophoresis and blotting were carried out as described in the prior art (6, 7). After transfer, the membranes were incubated with antibodies to IκB-α (Santa Cruz Biotechnology, Heidelberg), IκB-ε (Prof. N. Rice, NIH, Frederick, Md.), IKK-α, IKK-β (Santa Cruz Biotechnology) or α-actin (Sigma). The proteins were visualised on X-ray film using a western blot chemiluminescence reagent (NEN Life Science Products). Protein sizes were confirmed by means of molecular weight standards (Amersham Pharmacia Biotech, Braunschweig, Bio-Rad, Munich). […]
substance,measurement,setting,value
"IL-1β: cytokine used as stimulus of HUVEC, 100 pg/ml",time for which IKK activation is maintained,IKK complex,at least 90 minutes
same,time of IKK activation peak,IKK complex,45 min
same,beginning of IκB-α degradation after incubation,IκB-α and IκB-ε,15 min
same,time of significant IκB-ε proteolysis,IκB-α and IκB-ε,60 min
